Experimental data: US20250276994A1, “CAP ANALOG FOR THE 5'-END OF EUKARYOTIC MESSENGER RNAS” (WESTFÄLISCHE WILHELMS-UNIVERSITÄT, priority 2021, published 2025)

Key:
HEK293T cells = test: In cell translation assay in HEK293T cells of capped GLuc-mRNA (luminescence); format: cell-based; conditions: GLuc-mRNA with regular or modified nucleotides, 30 seconds (365 nm)
Description: In cell translation assay in HeLa and HEK293T cells with m^7GpppG capped GLuc-mRNA caged with the photocleavable 5′-cap analog of formula (22) (denoted “DMNB m^7GpppG”) with either A) regular nucleotides or B) modified nucleotides m^5C and N^1methyl-pseudouridine. Samples were irradiated for 30 seconds (365 nm). The ApppG capped mRNA, which is not recognized by the translation initiation factor served as negative control, which is substracted from the other samples as it represents background activity. The values were normalized to the non-irradiated sample with m^7GpppG capped mRNA (100%). The experiment was performed in triplicates.

HeLa cells = test: Translation and irradiation in HeLa cells of capped GLuc-mRNA (luminescence); format: cell-based; conditions: HeLa; GLuc-mRNA with regular or modified nucleotides; 30 seconds (365 nm)
Experimental: HeLa cells were transferred to a 96 well plate 20 h prior transfection. 30.000 cells/well were cultivated in growth Media (MEM, 10% FCS, 1% glutamine, 1% Penicillin, 1% Streptomycine, […] non-essential aminoacids). For transfection the growth media was exchanged for MEM-media with 0.6 μL Metafectene® Pro (0.3 μL) and 100 ng mRNA was added per well. 6 h after transfection of the cells the media was exchange by MEM-media, followed by irradiation and another MEM-media exchange. After 24 h post transfection the supernatant in the wells was used for further luminescence measurements. Values of the ApppG capped mRNA represent cap independent translation and were therefore subtracted from the other values.
In cell translation and irradiation in cell culture of mammalian HeLa cells was performed as described above. GLuc mRNA capped with the photocleavable 5′-cap analog of formula (12) (“DMNB”) was used and the commercial non-modified cap analog denoted “m^7GpppG” (Jena Bioscience) was used as a control. HeLa cells were either transfected with the DMNB-m^7GpCH2ppG capped mRNA (irradiated and non-irradiated before transfection) or with the natural capped mRNA (irradiated and non-irradiated before transfection). Irradiation of the mRNA containing the natural cap was performed (5 V, 600 mA) with 365 nm for 30 seconds to evaluate the resulting influence on translational efficiency. DMNB-m^7GpCH2ppG capped mRNA was irradiated in the same way or with 405 nm for 60 seconds. The ApppG capped mRNA, which is not recognized by the translation initiation factor served as negative control, which is substracted from the other samples as it represents background activity. The values were normalized to the non-irradiated m^7GpppG capped sample (100%). The experiment was performed in triplicates.
The luminescence measurement of cell culture media after translation in cells transfected with modified and non-modified GLuc mRNA was repeated using irradiation with 365 nm/405 nm for different periods of time. HeLa cells were either transfected with the GLuc mRNA capped with the photocleavable 5′-cap analog of formula (12) denoted “DMNB-m^7GpCH2ppG capped mRNA” or with the natural m^7GpppG capped mRNA. Cells transfected with the natural capped mRNA were irradiated (5 V, 600 mA) with 365 nm/405 nm for 30 s or 60 s to evaluate the resulting influence on translational efficiency. Cells transfected with DMNB-m^7GpCH2ppG capped mRNA were irradiated in the same way. The ApppG capped mRNA, which is not recognized by the translation initiation factor served as negative control, which is substracted from the other samples as it represents background activity. The values were normalized to the non-irradiated cells with m^7GpppG capped mRNA (100%). The experiment was performed in triplicates.
Luminescence measurement of cell culture media after translation of transfected modified and non-modified GLuc mRNA in cells. HeLa cells were either transfected with the NPOM-m^7GpCH2ppG capped mRNA or with the natural m^7GpppG capped mRNA. Cells transfected with the natural capped mRNA were irradiated (5 V, 600 mA) with 365 nm/405 nm for different periods of time to evaluate the resulting influence on translational efficiency. Cells transfected with NPOM-m^7GpCH2ppG capped mRNA were irradiated in the same way. The ApppG capped mRNA, which is not recognized by the translation initiation factor served as negative control, which is substracted from the other samples as it represents background activity. […]

Reticulocyte Lysate = test: In vitro translation of capped FLuc-mRNA and luminescence measurement; format: biochemical; conditions: 30 seconds at 365 nm
Experimental: In vitro translation was performed using a eukaryotic cell free protein expression kit from Reticulocyte Lysate (Invitrogen). Experiments were performed in 12.5 μL total volume containing 20 ng of the corresponding FLuc-mRNAs, 50 μM L-methionine and 150 mM potassium acetate. Samples were mixed with 8.5 μL of the reticulocyte lysate and incubated for 90 min at 30° C. Afterwards, 2 μL of the respective translation mix were used in subsequent luminescence measurement. The translation efficiency of the reporter mRNAs was assessed in a luciferase assay using Beetle-juice Luciferase Assay Firefly (pjk). Luciferase activity was determined by adding 50 μL freshly prepared substrate solution to the translation mixture. Luminescence was monitored using a Tecan Infinite® m1000pro microplate reader with an acquisition time of 3 s (duration of signal acquisition).
The photocleavable 5′-cap analog of formula (7) was used for in vitro transcription to make FLuc mRNA as described above. This was used for in vitro translation and Luminescence measurement as described above. The commercial non-modified cap analog denoted “m^7GpppG” (Jena Bioscience) was used as positive control. Samples were irradiated for 30 seconds. The ApppG capped mRNA, which is not recognized by the translation initiation factor served as negative control, which is substracted from the other samples as it represents background activity. The experiment was performed in quadruplicates. The FLuc-mRNA capped with the photocleavable 5′-cap analog of formula (7) is denoted “ONB”.
The in vitro translation assay and luminescence measurement was performed as described above using the photocleavable 5′-cap analog of formula (12). The capped mRNA was denoted “DMNB-m^7GpCH2ppG capped FLuc-mRNA”. Samples were irradiated for 30 seconds (365 nm) or 60 seconds (405 nm). The commercial non-modified cap analog denoted “m^7GpppG” (Jena Bioscience) was used as positive control and all other samples were normalized to it. The ApppG capped mRNA, which is not recognized by the translation initiation factor served as negative control, which is substracted from the other samples as it represents background activity. The experiment was performed in triplicates, except *DMNB-m7GpCH2ppG (365 nm) which was a single determination.
The in vitro translation assay in reticulocyte lysate and luminescence measurement was performed as described above using m^7GpppG capped FLuc-mRNA caged with the photocleavable 5′-cap analog of formulas (22) and (25) (denoted “DMNB m^7GpppG” and “NPOM m^7GpppG”). Samples were irradiated for 30 seconds at 365 nm. The ApppG capped mRNA, which is not recognized by the translation initiation factor served as negative control, which was substracted from the other samples as it represents background activity. The values were normalized to the non-irradiated sample with m^7GpppG capped mRNA (100%). The experiment was performed in triplicates.
The in vitro translation assay in reticulocyte lysate and luminescence measurement was performed as described above using m^7GpppG capped FLuc-mRNA with modified nucleotides m^5C and N^1methyl-pseudouridine caged with the photocleavable 5′-cap analog of formulas (22) and (25) (denoted “DMNB m^7GpppG mod” and “NPOM m^7GpppG mod”). Samples were irradiated for 30 seconds at 365 nm. The ApppG capped mRNA, which is not recognized by the translation initiation factor served as negative control, which was substracted from the other samples as it represents background activity. The values were normalized to the non-irradiated sample with m^7GpppG capped mRNA (100%). The experiment was performed in triplicates.

[1] = Irradiation of photocleavable 5′-cap analogs, LC-MS (triple quad); format: physicochemical; conditions: 30 seconds, 365 nm (3 W)
Experimental: For determination of mass spectra, HPLC—triple-quadrupole mass spectrometry system was used. The system consists of Agilent 1260 Infinity II with dual λ absorbance detector (G7114A) HPLC part and Agilent Ultivo mass spectrometer with JetStream ion source (type of ESI). Column which was used: Agilent Poroshell 120 EC-C18 (3.0×150/2.7 μm). The polar compounds were tested by LC method (eluent 20 mM NH40Ac buffer (pH=6)/CH3CN, gradient 0-30%, column temperature=20° C.).
Samples of the photocleavable 5′-cap analog of formula (22) were irradiated for 30 seconds with 365 nm (3 W).

[2] = Irradiation of caged nucleosides, conversion estimated by HPLC; format: physicochemical; conditions: 500 μM in water/acetone/acetonitrile; 405 nm 20-60 s or 365 nm 5-20 s; LED 3 W
Experimental: Conversions from caged compounds to uncaged compounds were estimated by integrating the peaks of a UV-spectrum that resulted from the HPLC analysis (Agilent infinity 1260).
When irradiating isolated N2-modified compounds, a final volume of 10 μL in double distilled water was irradiated using a LED (λmax=365 nm/405 nm/420 nm) and then analyzed by RP-HPLC.
A 500 μM solution of the compound 15, nitropiperonylmethyl fused via a carbamate moiety to guanosine (denoted “NPOM guanosine” or “caged guanosine”), in water/acetone/acetonitrile was irradiated in a 10 μL volume with either 405 nm for 20 s, 40 s or 60 s or with 365 nm for 5 s, 10 s or 20 s, respectively, using a LED power (input 3W and output 147 mW/cm^2). HPLC analysis was performed as described above.
Samples of the adenosine fused via a carbamate moiety to 7-(diethylamino)-4-(hydroxymethyl)-coumarin (DEACM) were irradiated with 450 nm. […] The peak at 21.1 min corresponds to the obtained compound and the peaks at 11.1 and 21.9 min correspond to the photo-cleavage products adenosine and DEACM-OH, respectively.

[3] = Stability of the carbamate linkage in water and HeLa cell lysate (HPLC); format: in vitro ADME; conditions: water or HeLa cell lysate, 24 h incubation at 37° C.
Experimental: To investigate the stability of the carbamate linker in cellular environment the compound 15, nitropiperonylmethyl fused via a carbamate moiety to guanosine, was studied in water and cell lysate. The cell lysate was produced by ultrasonication of HeLa cells (5*10^6 cells) in 400 μL 1×PBS buffer. The compound 15, NPOM-guanosine, suspended in water or cell lysate after 24 h incubation at 37° C. was analysed by HPLC-analysis as described above.
As can be taken from the FIG. 8, the compound 15 was stable under these conditions.

uncaging of the cap after irradiation (LC-MS) [1] | stability (HPLC) [3] | Compound | translation in cells (luminescence) after irradiation (HEK293T cells) | translation in cells (luminescence) after irradiation (HeLa cells) | in vitro translation (luminescence) after irradiation (Reticulocyte Lysate; capped FLuc-mRNA with modified nucleotides m^5C and N^1methyl-pseudouridine) | in vitro translation (luminescence) after irradiation (Reticulocyte Lysate; capped FLuc-mRNA, regular nucleotides) | conversion of caged guanosine to guanosine upon irradiation [2]
partially uncaged | – | COc1cc(COC(=O)Nc2nc3c(c(=O)[nH]2)[n+](C)cn3[C@@H]2O[C@H](COP(=O)(O)OP(=O)(O)OP(=O)(O)OC[C@H]3O[C@@H](n4cnc5c(=O)[nH]c(N)nc54)C(O)C3O)C(O)C2O)c([N+](=O)[O-])cc1OC (stereo partly shown) [compound 22, P1-(N^2-(4,5-Dimethoxy-2-nitrobenzyl)oxycarbonyl-7-methylguanosin-5′-yl)-P3-guanosin-5′-yl triphosphate] | marked increase of translation | marked increase of translation | marked increase of translation | marked increase of translation | –
– | stable | CC(OC(=O)Nc1nc2c(ncn2[C@@H]2O[C@H](CO)[C@@H](O)[C@H]2O)c(=O)[nH]1)c1cc2c(cc1[N+](=O)[O-])OCO2 (stereo partly shown) [compound 15, N^2-(1-(6-nitrobenzo[d][1,3]dioxol-5-yl)ethyl)oxycarbonylguanosine] | – | – | – | – | cleaved by irradiation and that guanosine is regained without side products
